What all share (assay): DTP human tumour cell line panel, 48 h
The test system of test [1] is BT-549 breast.
In test [2] the test system is CCRF-CEM leukemia.
Test [3] has as its system DMS 114 small cell lung.
In test [4] the test system is NCI-H522 lung.
For test [5], the system named is NCI/ADR-RES ovarian.
Test [6] has as its system PC-3 prostate.
The subject of test [7] is RXF 393 renal.
The test system of test [8] is SNB-78 CNS.
Test [9] deals with SW-620 colon.
Test [10] relates to T-47D breast.

“And” between values parts separate entries of the source, which are not always exact repeats. Equal entries are not always repeated.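 Five compound concentrations were applied to cells in 96-well plates for 48 hours; endpoints were derived by simple linear interpolation of the resulting dose-response curve. Here, GI50 denotes the concentration required for 50% inhibition of growth. TGI: concentration producing complete growth inhibition.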 Where only a bound is given, the exact number is not on record here.

Usually TGI stands for the concentration at which net growth stops. A low value points to more potent growth arrest. On to `Nc1ccc2c(SCC(=O)Nc3ccccc3-c3ccccc3NC(=O)CSc3c4ccccc4nc4cc(N)ccc34)c3ccccc3nc2c1`, for which the TGI is 85.1 µM in test [1]; greater than 100 µM in test [2]; 56.2 µM in test [3]; 31.8 µM in test [4]; greater than 100 µM in test [5]; 54.6 µM in test [6]. Besides, the TGI is 63.5 µM in test [7], greater than 100 µM in test [8], 67.4 µM in test [9] and greater than 63.3 µM in [10].

Take `C/C(N=NC(=S)N1CCCCCC1)=C1\C=CC=CN1O`: the TGI in test [1] is greater than 100 µM; in [2], 4.93 µM; in test [3], 3.45 µM; in test [4] it was 7.1 µM; in [7] it was 79.5 µM; in test [8], greater than 100 µM. Further, the TGI was greater than 100 µM in test [9] and 77.7 µM in test [10].

What is called GI50 is the concentration giving 50% growth inhibition. For `O=C1c2c(O)ccc(O)c2C(=O)c2c(NCCNCCO)ccc(NCCNCCO)c21`, the TGI in test [1] was 0.5 µM and 2.11 µM and 0.54 µM; in test [3], 0.263 µM; in [4], 0.101 µM and 0.0831 µM and 0.574 µM; in [5], > 100 µM and 50 µM and 23.9 µM; in test [6], 1.29 µM and 1.45 µM and 1.55 µM; in [7] it was 0.307 µM and 0.368 µM and 0.493 µM. Further, the TGI in test [8] is 1.66 µM; in [9], 1.91 µM and 1.62 µM and 1.77 µM; in [10] it was 1.05 µM and 0.652 µM and 1.5 µM. For the same compound, the 50% growth inhibitory concentration (GI50) in [2] was 0.0139 µM; in test [4], 0.0232 µM and 0.00969 µM and 0.0544 µM; in test [5] it was 1.41 µM and 1.64 µM and 3.86 µM.

As for `O=c1ncccn1C1OC(CO)C(O)C1F` (stereo not drawn), the GI50 in [2] and in test [9] was greater than 100 µM in each case. For the same compound, the TGI in [2], in test [3], in [4], in test [7], in [8] and in test [9] was greater than 100 µM throughout.

For the compound `COC(=O)C1=C(C(=O)OC)C(C(=O)OC)C(C(=O)OC)C(C(=O)OC)(C(=O)OC)C(C(=O)OC)=C1C(=O)OC` (stereo not drawn), the TGI came out at 32.1 µM in test [1]; 8.72 µM in test [2]; 23.2 µM in test [3]; 4.07 µM in test [4]; 30.1 µM in [6]; 16.7 µM in test [7]. Moreover, the TGI in test [8] turned out to be 44 µM; in [9], 16.8 µM; in [10] it was 50.8 µM.

With `O=C1Cc2ccccc2CCc2ccccc21`, the TGI in [2], in test [3], in test [4], in [7], in test [8] and in [9] was greater than 100 µM throughout.

Consider `COC(=O)C1=C(C(=O)OC)N(C(C)C)[C@H]2C(C(=O)OC)=C(C(=O)OC)N(C(C)C)[C@@H]12`, for which the TGI in [2], in [3], in [4], in test [7], in test [8] and in test [9] was greater than 100 µM in each case.

With `OCCN(CCO)c1ncnc2c1sc(=S)n2-c1ccccc1`, the TGI in test [2], in test [3], in test [4], in test [7], in test [8] and in [9] was greater than 100 µM in each case.

With `CN1C(=O)CC2(C)c3cc(C=O)ccc3N(C)C12` (stereo not drawn), the TGI in [2], in test [3], in test [4], in [7], in test [8] and in [9] was greater than 100 µM throughout.

As for `CCC1(Cl)C(=O)NC(=O)N(C2CC(O)C(CO)O2)C1N=[N+]=[N-]` (stereo not drawn), the TGI in test [2], in [3], in test [4], in [7], in test [8] and in test [9] was greater than 100 µM throughout.

As to `CC1(C)Oc2ccccc2N2O[C@@H]3C(=O)N(c4ccccc4)C(=O)[C@@H]3C21c1ccccc1` (stereo partly drawn), the TGI is greater than 100 µM in [2]; 62.9 µM in test [3]; 93.2 µM in test [4]; 60.8 µM in test [7]; 79.4 µM in test [8]; greater than 100 µM in test [9].

Values taken from PubChem BioAssay (NCI).
